Results: patent US20140249135A1, “PIM KINASE INHIBITORS AND METHODS OF THEIR USE” (NOVARTIS AG, priority 2007, published 2014)
pEC50, pIC50: −log10 of the molar value. Read-outs that look alike come from different tables or passages of the source.

Columns and labels:
Pim3 kinase = Pim3 kinase (Homo sapiens, UniProt Q86V86); assay: Pim3 ATP depletion assay; assay type: biochemical; details: for IC50: read-out: IC50 (μM) PIM3; for pIC50: read-out: PIM3 IC50
Pim2 kinase = Pim2 kinase (Homo sapiens, UniProt Q9P1W9); assay: Pim2 ATP depletion assay; assay type: biochemical; details: for IC50: read-out: IC50 (μM) PIM2; for pIC50: read-out: PIM2 IC50;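 on all read-outs here: Luciferase-based luminescent readout of ATP remaining after PIM2 phosphorylates a BAD peptide, final 5 nM enzyme, 4 µM ATP, 10 µM peptide, 2.5% DMSO, run to roughly half ATP consumption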
Pim2 kinase, sequence (Q9P1W9 whole entry): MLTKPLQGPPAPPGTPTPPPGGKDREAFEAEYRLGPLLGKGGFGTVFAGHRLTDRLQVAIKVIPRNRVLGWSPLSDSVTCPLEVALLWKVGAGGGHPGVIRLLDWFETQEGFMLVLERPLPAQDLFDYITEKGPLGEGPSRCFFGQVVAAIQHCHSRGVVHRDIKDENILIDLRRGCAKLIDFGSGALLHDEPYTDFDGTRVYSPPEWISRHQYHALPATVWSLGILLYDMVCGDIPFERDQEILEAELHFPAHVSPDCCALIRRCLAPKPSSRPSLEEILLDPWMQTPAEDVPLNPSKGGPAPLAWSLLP

[1] = test system: MM1.s (human myeloma cell line); assay: Cell proliferation assay (CellTiter-Glo), MM1.s; assay type: cell-based; details: MM1.s cells; for EC50: read-out: EC50 (μM) MM1.s; for pEC50: read-out: MM1.s EC50
Experimental: (§1) KMS 11 (human myeloma cell line), were cultured in IMDM supplemented with 10% FBS, sodium pyruvate and antibiotics. Cells were plated in the same medium at a density of 2000 cells per well into 96 well tissue culture plates, with outside wells vacant, on the day of assay. MM1.s (human myeloma cell line), were cultured in RPMI1640 supplemented with 10% FBS, sodium pyruvate and antibiotics. Cells were plated in the same medium at a density of 5000 cells per well into 96 well tissue culture plates, with outside wells vacant, on the day of assay.
(§2) Test compounds supplied in DMSO were diluted into DMSO at 500 times the desired final concentrations before dilution into culture media to 2 times final concentrations. Equal volumes of 2× compounds were added to the cells in 96 well plates and incubated at 37° C. for 3 days.
(§3) After 3 days plates were equilibrated to room temperature and equal volume of CellTiter-Glow Reagent (Promega) was added to the culture wells. The plates were agitated briefly and luminescent signal was measured with luminometer. The percent inhibition of the signal seen in cells treated with DMSO alone vs. cells treated with control compound was calculated and used to determine EC50 values (i.e., the concentration of a test compound that is required to obtain 50% of the maximum effect in the cells) for tested compounds, as shown in Example 763.

Pim1 kinase = Pim1 kinase (Homo sapiens, UniProt P11309); assay: Pim1 ATP depletion assay; assay type: biochemical; details: for IC50: read-out: IC50 (μM) PIM1;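 on all read-outs here: Luciferase-luciferin luminescence readout of residual ATP after PIM1 transfers phosphate to a peptide substrate, 40 µM ATP added, reaction run to roughly half ATP consumption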
Pim1 kinase, sequence (P11309 whole entry): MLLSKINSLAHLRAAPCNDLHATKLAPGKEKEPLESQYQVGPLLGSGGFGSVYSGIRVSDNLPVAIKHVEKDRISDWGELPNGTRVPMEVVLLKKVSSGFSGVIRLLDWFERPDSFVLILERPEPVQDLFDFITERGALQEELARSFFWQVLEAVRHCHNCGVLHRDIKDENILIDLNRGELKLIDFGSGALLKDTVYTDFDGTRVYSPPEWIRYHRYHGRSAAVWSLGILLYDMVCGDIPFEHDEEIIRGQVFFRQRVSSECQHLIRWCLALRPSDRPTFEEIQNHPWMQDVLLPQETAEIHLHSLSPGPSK

[2] = test system: KMS 11 (human myeloma cell line); assay: Cell proliferation assay (CellTiter-Glo), KMS 11; assay type: cell-based; details: KMS11 cells; for EC50: read-out: EC50 (μM) KMS11; for pEC50: read-out: KMS11 EC50
Experimental: as §1, §2, §3

[3] = Pim1 ATP depletion assay, read-out: PIM1 IC50

IC50 (Pim3 kinase) [µM] | IC50 (Pim2 kinase) [µM] | EC50 [1] [µM] | IC50 (Pim1 kinase; Pim1 ATP depletion assay) [µM] | EC50 [2] [µM] | pIC50 (Pim3 kinase) | pIC50 (Pim2 kinase) | pEC50 [1] | pIC50 (Pim1 kinase; [3]) | pEC50 [2] | Structure (SMILES) | pIC50 (Pim1 kinase)
< 1 | < 1 | < 1 | < 1 | < 1 |  |  |  |  |  | CO[C@@H]1C[C@H](N)CN(c2ccncc2NC(=O)c2nc(-c3c(F)cccc3F)ccc2N)C1 [Example 300, 3-Amino-6-(2,6-difluoro-phenyl)-pyridine-2-carboxylic acid (3-amino-5-methoxy-3,4,5,6-tetrahydro-2H-[1,4′]bi-pyridinyl-3′-yl)-amide] | 
< 1 | < 1 | 5 to 10 | < 1 | 1 to 5 |  |  |  |  |  | N[C@H]1CCCN(c2ccncc2NC(=O)c2ccc(F)c(-c3ccccc3)n2)C1 [Example 442, 5-Fluoro-6-phenyl-pyridine-2-carboxylic acid (3-amino-3,4,5,6-tetrahydro-2H-[1,4′]bipyridinyl-3′-yl)-amide] | 
< 1 | < 1 | 1 to 5 | < 1 | 1 to 5 |  |  |  |  |  | Nc1ccc(-c2c(F)cccc2F)nc1C(=O)Nc1cnccc1N1CCC[C@@H](N)C1 [Example 462, 3-Amino-6-(2,6-difluoro-phenyl)-pyridine-2-carboxylic acid (3-amino-3,4,5,6-tetrahydro-2H-[1,4′]bipyridinyl-3′-yl)-amide] | 
< 1 | < 1 | 1 to 5 | < 1 | 1 to 5 |  |  |  |  |  | CCCOc1ccc(F)c(-c2ccc(N)c(C(=O)Nc3cnccc3N3CCC[C@H](N)C3)n2)c1F [Example 491, 3-Amino-6-(2,6-difluoro-3-propoxy-phenyl)-pyridine-2-carboxylic acid (3-amino-3,4,5,6-tetrahydro-2H-[1,4′]bipyridinyl-3′-yl)-amide] | 
< 1 | < 1 | 1 to 5 | < 1 | < 1 |  |  |  |  |  | CCCOc1ccc(F)c(-c2nc(C(=O)Nc3cnccc3N3CCC[C@H](N)C3)c(N)cc2F)c1F [Example 494, 3-Amino-6-(2,6-difluoro-3-propoxy-phenyl)-5-fluoro-pyridine-2-carboxylic acid (3-amino-3,4,5,6-tetrahydro-2H-[1,4′]bipyridinyl-3′-yl)-amide] | 
< 1 | < 1 | < 1 | < 1 | < 1 |  |  |  |  |  | CC(C)Oc1ccc(F)c(-c2nc(C(=O)Nc3cnccc3N3CCC[C@H](N)C3)c(N)cc2F)c1F [Example 496, 3-Amino-6-(2,6-difluoro-3-isopropoxy-phenyl)-5-fluoro-pyridine-2-carboxylic acid (3-amino-3,4,5,6-tetrahydro-2H-[1,4′]bipyridinyl-3′-yl)-amide] | 
< 1 | < 1 | < 1 | < 1 | < 1 |  |  |  |  |  | Nc1cc(F)c(-c2c(F)cccc2F)nc1C(=O)Nc1cnccc1N1CCC[C@H](N)C1 [Example 516, 3-Amino-6-(2,6-difluoro-phenyl)-5-fluoro-pyridine-2-carboxylic acid (3-amino-3,4,5,6-tetrahydro-2H-[1,4′]bipyridinyl-3′-yl)-amide] | 
< 1 | < 1 | 1 to 5 | < 1 | 1 to 5 |  |  |  |  |  | Nc1cc(F)c(-c2ccccc2F)nc1C(=O)Nc1cnccc1N1CCC[C@H](N)C1 [Example 517, 3-Amino-5-fluoro-6-(2-fluoro-phenyl)-pyridine-2-carboxylic acid (3-amino-3,4,5,6-tetrahydro-2H-[1,4′]bipyridinyl-3′-yl)-amide] | 
 |  |  |  |  | > 6.00 | > 6.00 | 5.30 to 6.00 | > 6.00 | 5.30 to 6.00 | N[C@H]1CCCN(c2ccncc2NC(=O)c2nc(-c3c(F)cccc3F)ccc2F)C1 [Example 570, 6-(2,6-Difluoro-phenyl)-3-fluoro-pyridine-2-carboxylic acid (3-amino-3,4,5,6-tetrahydro-2H-[1,4′]bipyridinyl-3′-yl)-amide] | 
 |  |  |  |  | > 6.00 | > 6.00 | 5.30 to 6.00 | > 6.00 | 5.30 to 6.00 | CCCOc1ccc(F)c(-c2ccc(N)c(C(=O)Nc3cnccc3N3C[C@@H](N)C[C@@H](F)C3)n2)c1 [Example 577, 3-Amino-6-(2-fluoro-5-propoxy-phenyl)-pyridine-2-carboxylic acid (3-amino-5-fluoro-3,4,5,6-tetrahydro-2H-[1,4′]bipyridinyl-3′-yl)-amide] | 
 |  |  |  |  | > 6.00 | > 6.00 | 5.30 to 6.00 | > 6.00 | 5.30 to 6.00 | Nc1ccc(-c2ncccc2F)nc1C(=O)Nc1cnccc1N1CCC[C@H](N)C1 [Example 702, 5-Amino-3′-fluoro-[2,2′]bi-pyridinyl-6-carboxylic acid (3-amino-3,4,5,6-tetrahydro-2H-[1,4′]bipyridinyl-3′-yl)-amide] | 
 |  |  |  |  | > 6.00 | > 6.00 | 5.30 to 6.00 | > 6.00 | 5.30 to 6.00 | Nc1cc(F)c(-c2ncccc2F)nc1C(=O)Nc1cnccc1N1CCC[C@H](N)C1 [Example 744, 5-Amino-3,3′-difluoro-[2,2′]bi-pyridinyl-6-carboxylic acid (3-amino-3,4,5,6-tetrahydro-2H-[1,4′]bipyridinyl-3′-yl)-amide] | 

Second part, the compound before the results:

Structure (SMILES) | IC50 (Pim3 kinase) [µM] | IC50 (Pim2 kinase) [µM] | EC50 [1] [µM] | IC50 (Pim1 kinase; Pim1 ATP depletion assay) [µM] | EC50 [2] [µM] | pIC50 (Pim3 kinase) | pIC50 (Pim2 kinase) | pEC50 [1] | pIC50 (Pim1 kinase; [3]) | pEC50 [2] | pIC50 (Pim1 kinase)
CC(C)NC(=O)c1ccc(F)c(-c2nc(C(=O)Nc3cnccc3N3CCC[C@H](N)C3)ccc2F)c1 [Example 443, 5-Fluoro-6-(2-fluoro-5-isopropylcarbamoyl-phenyl)-pyridine-2-carboxylic acid (3-amino-3,4,5,6-tetrahydro-2H-[1,4′]bipyridinyl-3′-yl)-amide] | < 1 | < 1 | 5 to 10 | < 1 | 1 to 5 |  |  |  |  |  | 
CCCOc1ccc(F)c(-c2ccc(N)c(C(=O)Nc3cnccc3N3C[C@@H](N)C[C@@H](OC)C3)n2)c1 [Example 579, 3-Amino-6-(2-fluoro-5-propoxy-phenyl)-pyridine-2-carboxylic acid (3-amino-5-methoxy-3,4,5,6-tetrahydro-2H-[1,4′]bi-pyridinyl-3′-yl)-amide] |  |  |  |  |  | > 6.00 | > 6.00 | 5.30 to 6.00 | > 6.00 | > 6.00 | 
CO[C@@H]1C[C@H](N)CN(c2ccncc2NC(=O)c2nc(-c3ccccc3)ccc2N)C1 [Example 580, 3-Amino-6-phenyl-pyridine-2-carboxylic acid (3-amino-5-methoxy-3,4,5,6-tetrahydro-2H-[1,4′]bipyridinyl-3′-yl)-amide] |  |  |  |  |  | > 6.00 | > 6.00 | 5.30 to 6.00 | > 6.00 | 5.30 to 6.00 | 
Nc1ccc(-c2c(F)cccc2F)nc1C(=O)Nc1cnccc1N1CC[C@@H](O)[C@H](N)C1 [Example 679, 3-Amino-6-(2,6-difluoro-phenyl)-pyridine-2-carboxylic acid (3-amino-4-hydroxy-3,4,5,6-tetrahydro-2H-[1,4′]bi-pyridinyl-3′-yl)-amide] |  |  |  |  |  | > 6.00 | > 6.00 | > 6.00 |  | 5.30 to 6.00 | > 6.00
N[C@@H]1CN(c2ccncc2NC(=O)c2ccc(F)c(-c3c(F)cccc3F)n2)CC[C@H]1O [Example 683, 6-(2,6-Difluoro-phenyl)-5-fluoro-pyridine-2-carboxylic acid (3-amino-4-hydroxy-3,4,5,6-tetrahydro-2H-[1,4′]bi-pyridinyl-3′-yl)-amide] |  |  |  |  |  | > 6.00 | > 6.00 | 5.30 to 6.00 | > 6.00 | > 6.00 | 
CC(C)NC(=O)c1ccc(F)c(-c2nc(C(=O)Nc3cnccc3N3CCC[C@H](N)C3)c(N)cc2F)c1F [Example 736, 3-Amino-6-(2,6-difluoro-3-isopropylcarbamoyl-phenyl)-5-fluoro-pyridine-2-carboxylic acid (3-amino-3,4,5,6-tetra-hydro-2H-[1,4′]bipyridinyl-3′-yl)-amide] |  |  |  |  |  | > 6.00 | > 6.00 | 5.30 to 6.00 | > 6.00 | > 6.00 | 
CC(C)NC(=O)c1ccc(F)c(-c2ccc(N)c(C(=O)Nc3cnccc3N3CC[C@H](O)[C@H](N)C3)n2)c1 [Example 753, 3-Amino-6-(2-fluoro-5-isopropyl-carbamoyl-phenyl)-pyridine-2-carboxylic acid (3-amino-4-hydroxy-3,4,5,6-tetrahydro-2H-[1,4′]bipyridinyl-3′-yl)-amide] |  |  |  |  |  | > 6.00 | > 6.00 | > 6.00 | > 6.00 | 5.30 to 6.00 | 
Nc1ccc(-c2c(F)cccc2F)nc1C(=O)Nc1cnccc1N1CC[C@H](O)[C@H](N)C1 [Example 754, 3-Amino-6-(2,6-difluoro-phenyl)-pyridine-2-carboxylic acid (3-amino-4-hydroxy-3,4,5,6-tetra-hydro-2H-[1,4′]bipyridinyl-3′-yl)-amide] |  |  |  |  |  | > 6.00 | > 6.00 | 5.30 to 6.00 |  | > 6.00 | > 6.00
